Laboratory results reported in patent publication US20230123334A1, “AMINO LIPID COMPOUND, PREPARATION METHOD THEREFOR, AND APPLICATION THEREOF” (SHENZHEN SHENXIN BIOTECHNOLOGY CO., LTD., priority 2020, published 2023).

How the values were obtained:
Type in all cases: cell-based
Hela cells [1] = experiment: Transfection of Hela cell line, mRNA vectors; conditions: 50 ng EGFP mRNA per well
Summary of the method: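 HeLa cells in DMEM with 10% FBS transfected with 50 ng EGFP mRNA per well. Readout is percentage of GFP-positive cells among total cells counted by Hoechst nuclear stain; Lipofectamine2000 served as positive control.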

MCF7 cells [2] = experiment: Transfection of MCF7 cell line, mRNA vectors; conditions: 50 ng EGFP mRNA per well
Summary of the method: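 MCF7 cells in DMEM with fetal bovine serum were transfected with 50 ng EGFP mRNA per well. Read-out was the percentage of GFP-positive cells among total Hoechst-stained nuclei, with Lipofectamine2000 as positive control.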

HEK293 cells [3] = experiment: Preliminary screening as mRNA vectors, EGFP mRNA transfection of HEK293 cells; conditions: HEK293 cells, 96-well plates, EGFP mRNA 50 ng per well; percentage of GFP fluorescent cells relative to total number of cells (Hoechst)
Summary of the method: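 Screening format: EGFP mRNA transfection (50 ng/well) into HEK293 in 10% FBS-supplemented DMEM. Percent green fluorescent cells, normalised to Hoechst nuclear count, gave the value; Lipofectamine2000 was the reference transfectant.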

HEK293 cells [4] = experiment: Preliminary screening as DNA vectors, GFP transfection of HEK293 cells; conditions: HEK293 cells; lipid/DOPE liposome with 75 ng plasmid DNA (psin-EGFP-IRES-Puro); number of cells expressing GFP divided by total number of nuclei (Hoechst)
Summary of the method: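 First, amino lipid and DOPE were vortexed in sodium acetate buffer (pH 5.6) to form liposomes. Next, these were held with 75 ng EGFP plasmid at room temperature for 30 min. Finally, HEK293 cells were added, cultured at 37° C., Hoechst-stained, and GFP+/total nuclei scored by imaging.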

Hela cells [5] = experiment: Transfection of Hela cell line, DNA vectors; conditions: 75 ng plasmid DNA, GFP cells / total cells
Summary of the method: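 Amino lipid/DOPE liposomes in sodium acetate pH 5.6 were complexed with 75 ng psin-EGFP-IRES-Puro plasmid for 30 min at room temperature, then mixed with 3-5×10^4 Hela cells in DMEM/10% FBS at 37° C. Hoechst stain after 20-24 h, imaging after a further 20-24 h. Efficiency = GFP-positive cells / total nuclei.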

cardiomyocytes [6] = experiment: Screening as DNA vectors in cardiomyocytes; parameters: concentration or dose not given beside the values; conditions: method as Example 4
Summary of the method: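 hESC-derived cardiomyocytes in DMEM with 10% FBS were transfected with a GFP DNA vector; Lipofectamine Stem served as positive control. Read-out: percentage of GFP-positive cells relative to total cells counted by Hoechst nuclear stain.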

[7] = system: embryonic stem cells (hESC2); experiment: Screening as DNA vectors in embryonic stem cells, flow cytometry; conditions: 75 ng plasmid DNA, 48 hours after transfection, flow cytometer
Summary of the method: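 hESC2 cells in mTeSR1 on matrigel transfected with 75 ng pSin-EGFP-IRES-Puro complexed with amino lipid/DOPE liposomes formed in sodium acetate pH 5.6; 37 °C, 5% CO2. After 48 h, GFP-positive cells counted by flow cytometry (≥2000 cells), efficiency also expressed relative to Lipofectamine Stem.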

[8] = system: embryonic stem cells (hESC2); experiment: Screening as mRNA vectors in embryonic stem cells; conditions: 50 ng EGFP mRNA per well
Summary of the method: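 EGFP mRNA (50 ng per well) transfected into hESC2 cells grown in mTeSR1; Lipofectamine Stem served as positive control. Read-out: GFP-fluorescent cells as percentage of total cells.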

MCF7 cells [9] = experiment: Transfection of MCF7 cell line, DNA vectors; parameters: concentration or dose not given beside the values; conditions: plasmid DNA, GFP cells / total cells
Summary of the method: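 MCF7 cells in DMEM with fetal bovine serum were transfected in 96-well format. Read-out was the percentage of GFP-fluorescent cells among total cells counted by Hoechst nuclear stain. Lipofectamine2000 served as positive control.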

cardiomyocytes [10] = experiment: Screening as mRNA vectors in cardiomyocytes; conditions: 50 ng EGFP mRNA per well
Summary of the method: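 Cardiomyocytes differentiated from hESC, in DMEM with 10% FBS, were transfected with 50 ng EGFP mRNA per well. The read-out was GFP-positive cells as a percentage of Hoechst-stained nuclei, with Lipofectamine Stem as positive control.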

| SMILES | Absolute mRNA transfection efficiency in Hela cells (Hela cells [1]) | Absolute mRNA transfection efficiency in MCF7 cells (MCF7 cells [2]) | Absolute mRNA transfection efficiency in HEK293 cells (HEK293 cells [3]) | Absolute DNA transfection efficiency in HEK293 cells (HEK293 cells [4]) | Absolute DNA transfection efficiency in Hela cells (Hela cells [5]) | Absolute DNA transfection efficiency in cardiomyocytes (cardiomyocytes [6]) | Absolute DNA transfection efficiency in embryonic stem cells [7] | Absolute mRNA transfection efficiency in embryonic stem cells [8] | Absolute DNA transfection efficiency in MCF7 cells (MCF7 cells [9]) | Absolute mRNA transfection efficiency in cardiomyocytes (cardiomyocytes [10]) |
| --- | --- | --- | --- | --- | --- | --- | --- | --- | --- | --- |
| CCCCCCCCCCCCCCSc1nc(NCCN2CCCC2)nc(SCCCCCCCCC)n1 [Compound S9S14D3] | 2.5% | 4.4% | 2.3% | 5.1% | 2.4% | 0.5% | 1.6% | 19.7% | 1.3% | 72.4% |
| CCCCCCCCCCCCSc1nc(NCCN2CCN(C)CC2)nc(SCCCCCCCCC)n1 [Compound S9S12D5] | 10.8% | 27.3% | 57.5% | 21.0% | 10.8% | 1.7% | 4.6% | 27.3% | 32.0% | 1.2% |
| CCCCCCCCCCCCSc1nc(NCC2CCN(C)CC2)nc(SCCCCCCCCC)n1 [Compound S9S12D10] | 8.9% | 40.9% | 82.9% | 17.9% | 8.9% | 2.9% | 14.0% | 25.4% | 46.0% | 3.8% |
| CCCCCCCCCCCCCCSc1nc(NCCN2CCN(C)CC2)nc(SCCCCCCCCC)n1 [Compound S9S14D5] | 7.32% | 2.1% | 32.3% | 14.6% | 7.3% | 4.6% | 0.7% | 22.5% | 17.9% | 0.6% |
| CCCCCCCCCCCCCCCSc1nc(NCC2CCN(C)CC2)nc(SCCCCCCCCC)n1 [Compound S9S15D10] | 28.7% | 49.4% | 94.8% | 56.1% | 28.7% | 24.8% | 16.8% | 23.0% | 58.8% | 4.3% |
| CCCCCCCCCCCCCCCSc1nc(NCCN2CCCC2)nc(SCCCCCCCCC)n1 [Compound S9S15D3] | 1.4% | 1.1% | 2.5% | 2.5% | 1.4% | 0.3% | 1.8% | 9.2% | 1.4% | 6.6% |
| CCCCCCCCCCCCSc1nc(NCCN2CCCC2)nc(SCCCCCCCCC)n1 [Compound S9S12D3] | 2.4% | 6.5% | 5.3% | 4.9% | 2.4% | 2.7% | 5.3% | 21.4% | 3.0% | 65.7% |
| CCCCCCCCCCCCSc1nc(NCCCN2CCOCC2)nc(SCCCCCCCCC)n1 [Compound S9S12D8] | 15.8% | 12.6% | 13.8% | 30.4% | 15.8% | 5.8% | 11.1% | 1.7% | 7.7% | 0.9% |
| CCCCCCCCCCCCCCSc1nc(NCCCN2CCN(C)CC2)nc(SCCCCCCCCC)n1 [Compound S9S14D9] | 14.8% | 19.1% | 68.8% | 28.4% | 14.8% | 11.1% | 2.5% | 16.4% | 38.2% | 12.4% |
| CCCCCCCCCCCCCCCSc1nc(NCCCN2CCOCC2)nc(SCCCCCCCCC)n1 [Compound S9S15D8] | 11.1% | 13.5% | 5.4% | 22.2% | 11.1% | 2.0% | 1.9% | 0.4% | 3.0% | 0.6% |
| CCCCCCCCCCCCCCSc1nc(NCC2CCN(C)CC2)nc(SCCCCCCCCC)n1 [Compound S9S14D10] | 7.5% | 50.3% | 91.0% | 14.5% | 7.2% | 7.6% | 0.7% | 23.1% | 50.5% | 34.4% |
| CCCCCCCCCCCCCCSc1nc(NCCCN(C)C)nc(SCCCCCCCCC)n1 [Compound S9S14D6] | 9.6% | 12.2% | 80.0% | 19.2% | 9.6% | 10.5% | 2.0% | 1.7% | 44.4% | 8.5% |
